The record followed here is publication PMC3141093 (2011).

pKd, pKi: −log10 of the molar value.

In general, pKd refers to −log10 of the Kd, conventionally taken in molar units. Higher therefore signals a small Kd. One may read the pKi as −log10 of the Ki, conventionally taken in molar units. A high value points to a small Ki.

Assay [1] concerns the target anti-METH monoclonal antibody (mAb) generated from mice immunized with (+)-METH HSMO9 BSA MCV. Briefly: mAb affinity. It counts as binding, Mus musculus.
The target is the same in assay [2]. Briefly: mAb affinity. It counts as binding, Mus musculus. The source holds these as a separate data set.

Molecule `CN[C@@H](C)Cc1ccccc1` [(+)-METH] had a pKd in assay [1] of 8.17.
On to `CN[C@@H](C)Cc1ccc2c(c1)OCO2` [(+)-MDMA], for which the pKi in assay [2] is 8.96.
